What was measured:
[1] = test system: diabetic rats; assay: Nociceptive threshold (NCT) pain test, reversion of established diabetic neuropathy (Example 2); assay type: in vivo, Wistar rats; settings: 100 μg EGF in 1 ml i.p. 3 days a week for one month, day 120 after induction of diabetes
Experimental: The pain test, by application of an increasing pressure in the tail, was carried out at days 28 and 56 after initiation of the treatment, using 10 animals per each one of the experimental groups. NCT, expressed in grams, was determined by using an Ugo Basile type analgesimeter to apply a gradually increasing pressure to the tail of the animals until they developed a withdrawal reflex. In human diabetic neuropathy the nociceptive threshold is reduced.
(§1) The aim of this study was to evaluate the neurorestoration effect of the pharmaceutical composition. Male Wistar rats between 200-250 grams of body is weight received a subcutaneous injection of streptozotocin at 75 mg/kg in sodium citrate buffer, and were allowed to evolve until 120 days after disease induction. All rats used in this experiment had shown sustained glucose levels above 15 mmol/L. Animals were handled and fed as previously described. A concurrent control group was set, where animals received saline instead of streptozotocin. […] After this period an electrophysiological characterization of all rats were done and animals were split in two random treatment groups:
Group II. Animals received the pharmaceutical composition with 100 μg of EGF in 1 ml, 3 days a week, by intraperitoneal route. […]

[2] = test system: right sciatic nerve; assay: Laser Doppler Perfusion Imaging of blood perfusion of a peripheral nerve, reversion study (Example 2); assay type: in vivo, Wistar rats; settings: established diabetic neuropathy, 100 μg EGF in 1 ml i.p. 3 days a week for one month
Source text: The right sciatic nerve of rats was used as a model. Ten animals were included for each one of the experimental groups. A similar number of non diabetic rats were used to calculate the reference values. A Laser Doppler Perfusion Imaging (LDPI) system was used. Data of perfusion in peripheral tissues to the nerve were programmed as zero values. Control animals received saline during two months before the measurement. All determinations were done under the same conditions of anesthesia and environmental conditions. They are reflected in Table 5. The aim of this study was to evaluate the neurorestoration effect of the pharmaceutical composition. Male Wistar rats between 200-250 grams of body is weight received a subcutaneous injection of streptozotocin at 75 mg/kg in sodium citrate buffer, and were allowed to evolve until 120 days after disease induction. All rats used in this experiment had shown sustained glucose levels above 15 mmol/L. Animals were handled and fed as previously described. A concurrent control group was set, where animals received saline instead of streptozotocin. […] After this period an electrophysiological characterization of all rats were done and animals were split in two random treatment groups: Group II. Animals received the pharmaceutical composition with 100 μg of EGF in 1 ml, 3 days a week, by intraperitoneal route. […]

[3] = test system: diabetic rats; assay: Conduction velocity of motor fibers, reversion study (Example 2); assay type: in vivo, Wistar rats; settings: established diabetic neuropathy, 100 μg EGF in 1 ml i.p. 3 days a week for one month, day 120 after induction of diabetes
Experimental: (§2) Distal supra-maximal stimulation in the sciatic-tibial route using bipolar electrodes is was used to study motor conduction. Determination of the conduction velocity in the sensory routes was carried out by applying a stimulus at a proximal point in the tail and measure it 3 cm away.
as §1
Group II. Animals received the pharmaceutical composition with 100 μg of EGF in 1 ml, 3 days a week, by intraperitoneal route.
To check the effect of the pharmaceutical composition on the restoration of sensory and motor fibers the conduction velocity of an electric impulse was measured at day 120 after induction of diabetes, after treating the animals with the pharmaceutical composition or saline. […]

[4] = test system: diabetic rats; assay: Sensory conduction velocity in the tail, prevention study (Example 1); assay type: in vivo, Wistar rats; settings: 75 μg EGF/ml, day 60
Experimental: (§3) Male Wistar, with 200-250 grams of body weight, received a subcutaneous injection of streptozotocin, at 75 mg/kg in sodium citrate buffer. Water was then replaced by a 10% sucrose solution during the next 24 h, to prevent deaths caused by hypoglycemia. Glucose levels in blood were monitored every morning during the next 72 hours after the injection. Only animals with sustained glucose values above 15 mmol/L were used. Rats were housing at 4 per cage and fed in the conventional way. A concurrent group of other 80 rats received citrate buffer without streptozotocin and was handled in a similar fashion to the diabetic group. The average value for glycemia during the 72 hours in this group was 5.87 mmol/L.
(§4) All treatments were conducted during 8 weeks, starting one week after streptozotocin injection. The composition used contained 75 μg of human recombinant EGF/ml. Several types of observations were conducted in the animals under study:
Fifteen animals were used in each experimental group. In diabetic neuropathy conduction velocity is generally diminished.
as §2

[5] = test system: diabetic animals; assay: Findings in diabetic animals after injection or infiltration of the composition (summary); assay type: in vivo; settings: after three systemic injections or local infiltrations at the periphery of the nerve trunks
[6] = test system: sciatic nerve; assay: Histomorphometric study on fragments of the sciatic nerve, prevention study (Example 1); assay type: in vivo, Wistar rats; settings: day 70 after induction of diabetes; for Number of blood vessels: 10 microscopic fields
Experimental: as §3, §4
Once the treatment was concluded, animals were sacrificed at day 70 after induction of diabetes, 10 days after the last dose was given, and the analysis described above is was completed. Animals were sacrificed by an overdose of anesthesia and perfused with saline buffer pH 7.4. A total of ten animals per experimental group were included for histomorphometric studies, and an equivalent number of rats were used for biochemical determinations. In both systems the sciatic nerves from both limbs were dissected; fragments were kept at −70° C. until processed. The samples taken for histological and/or histomorphometric studies were stained with hematoxilin/eosin and toluidine blue. At least five fragments of the same nerve were quantitatively studied using MADIP program. The fragments were included in blocks of celloidine and gelatin, and those blocks were horizontal and transversally sliced. The following histological indicators were evaluated: • Total number of blood vessels (in epineural/perineural) in 10 microscopic fields using 10× as constant magnification in longitudinal cuts of the nerve. • Percentage of demyelinated fibers. Evaluated by averaging the values per microscopic field (×20, at least five fields). • Percentage of myelin or non-myelin fibers with lesions (dilated or distorted) per microscopic field (×20, at least five fields). • Percentage of endoneurial collagenization (moderated: 25 to 50%; severe: more than 50% of the endoneurial area in transversal slices, and at least three different sections.

[7] = Treatment group 1 (once weekly i.p., 8 weeks)
[8] = Treatment group 3 (three times a week i.p., 8 weeks)

## EGF containing pharmaceutical composition: Composition with human recombinant EGF: 75 μg/ml in Example 1, 100 μg in 1 ml in Example 2, given intraperitoneally
[1]
  UNC (NCT test): 80 ± 5 grams
[2]
  Laser Doppler perfusion of the sciatic nerve: 934 ± 60.18 LDPI Units
[3]
  Velocity (conduction velocity of motor fibers): 54.8 ± 1.66 m/s
[4]; 1 ml i.p. once weekly (Treatment group 1)
  SCV (sensitive conduction velocity): 38 ± 6 m/s
[4]; 1 ml i.p. three times a week (Treatment group 3)
  SCV (sensitive conduction velocity): 44 ± 9 m/s
[5]
  Axon edema: Reductions in axon edema
  Axonal neurofilaments: Preservation of axonal neurofilaments
  Conduction velocity of motor fibers: Normalization of conduction velocity of motor fibers
  Endoneurial collagenization: Diminution of endoneurial collagenization
  Integrity of the myelin sheath of the sciatic nerve: Improvement in the integrity of the myelin sheath of the sciatic nerve
  Vasa nervorum: Integrity of the vasa nervorum
[6]; [7]
  Number of blood vessels: 111.33 ± 14.5
  % of collagenized area: 42.69 ± 14.71%
  % of demyelinated fibers: 51.2 ± 17.94%
  % of fibers with lesions: 60.12 ± 11%
[6]; [8]
  Number of blood vessels: 158.6 ± 26.12
  % of collagenized area: 13.45 ± 11.82%
  % of demyelinated fibers: 35.56 ± 12.18%
  % of fibers with lesions: 41.38 ± 10.26%
